According to publication PMC6268373, “Systematic Study of the Physicochemical Properties of a Homologous Series of Aminobisphosphonates” (Molecules, 2012):
Values after ≈ are worked out from the molar mass of the structure shown. Where two headings read alike, the source gives them in different places.

Experiments:
[1] = Protonation constants by (traditional) potentiometric titration (TPT), SUPERQUAD; conditions: 0.1 M NaNO3, 25 °C; for pKa: aqueous 0.1 M NaNO3, log K, TPT
Excerpt: Results were obtained from […] as overall stability constants (log β values); following the chosen zero level H2L^2−. This zero level H2L^2− was chosen in the calculations to avoid any accumulation of errors of protonation constants at different pH ranges. The log β results for reactions (4) and (5) obtained in the final refinements are listed in Table S3 (see Supporting Information) with error limits (±3σ), number of points/number of titrations and χ^2/Σ statistics.
The details of the experiments using (traditional) potentiometric titration are presented in the Supporting Information. The results of the determination by Sirius instrument are shown in the Supporting Information. Potentiometric titrations of the compounds were performed with the PCA200 apparatus (Sirius Analytical Instruments Ltd, Forest Row, East Sussex, UK).
Table S2. The effect of pH on aqueous solubility (mg/L) of aminoalkylbis(phosphonates) […]
Solubility (g/L) of Compound
Determination of the Protonation Constants Using (traditional) Potentiometric Titration. Reagents:
Aqueous 0.1 M NaOH was prepared from Titrisol ampoules (Merck) and 0.1 M HNO3 from Convol ampoules (BDH). The background solution was prepared by dissolving NaNO3 in deionised water.
The NaNO3 and NaCl used in reference electrode were p.a. grade (Merck). The water used in the dilutions and titration solutions was purified with Milli-RO and Milli-Q water purification systems […]
Potentiometric measurements: The protonation equilibria was studied in aqueous 0.1 M NaNO3 at 25.0 ± 0.1 °C through a series of potentiometric EMF titrations carried out with a Schott-Geräte GmbH […]
The cell arrangement for the measurement of the hydrogen ion concentration [H+] was as follows:
−RE […] equilibrium solution […] GE+ (1) where GE denotes a glass electrode (Schott N2680), and RE is Hg, Hg2Cl2 […] 0.01 M NaCl, 0.09 M NaNO3. Expression (2) is valid assuming that the activity coefficients are constant.
The cell parameter E0 and the liquid junction coefficient jH, valid in acidic solutions, were determined for each titration by adding a known amount of HNO3 to the background electrolyte. The value of the liquid junction coefficient jOH, valid in basic solutions, was determined periodically. Only stable EMF readings were used in the calculations.
During the measurements of the protonation equilibria, aqueous 0.1 M NaOH or 0.1 M HNO3 was […]
Four to eight independent titrations were carried out for each ligand. The number of data points used in […]
Data treatment: Protonation and deprotonation of the ligands were controlled by addition of HNO3 or NaOH. The curves of ZH versus pH were drawn to visualize the experimental data sets. ZH describes the average number of H+ ions added or liberated per mole of ligand and is given by the relationship […]
where CH denotes the total concentration of protons calculated over the zero level H2L2−.
In the evaluation of the equilibrium constants, the following two-component equilibria were utilized:
H2L2− ⇋ H2-xL(2+x)– + xH+ , x = 1–2; β–x (4) xH+ + H2L2− ⇋ Hx+2Lx–2, x = 1–3; βx (5)
Mathematical analysis of the systems involves a search for protonation models and equilibrium constants that best describe the experimental data. The calculations were carried out with the computer […]
1200). The sample standard deviation Σ and the χ2 statistics used as criteria in the selection of the models were those provided by the program. As a means to improve the confidence level, the error limits for log β values determined in this study are reported as three times the standard deviation estimated by the program.
Figure S2. ZH vs. pH for protonation of compounds (a) 1; (b) 2; (c) 3; (d) 4 and (e) 5.

[2] = Thermal analysis (TG/DTA and TGA 7); type: physicochemical; conditions: for Td: 5 °C/min; for Temp. range of 1st cleavage: lower limit taken at 0.5 wt-%
Experimental: Thermal decomposition paths with evaluation of crystal water content were obtained parallel with two instruments; Perkin Elmer STA 6000 thermogravimetric TG/DTA and Perkin Elmer TGA 7 analyzers (Perkin Elmer, Massachusetts, USA). Measurements were carried out in an open platinum crucible (the higher 5 mm crucible was used in TG/DTA and a shallower 2 mm crucible in TGA 7) under air atmosphere (flow rate of 45 mL/min) with a heating rate of 5 °C/min over the temperature range of 25−700 °C. The temperature calibration of STA 6000 was made using melting points of indium (156.60 °C) and zinc (419.5 °C) standards. For TGA 7 magnetic Curie-point calibration technique (Alumel, Ni, Perkalloy, Fe) was used. The weight balance of both instruments was calibrated by measuring a standard weight of 50 mg at room temperature. The sample weights used in the measurements were about 4–8 mg, and for each bisphosphonate, it was attempted to keep the same on both instruments. The melting/dehydration/decomposition behavior of the compounds was also visually monitored using a Stuart Scientific SMP3 melting point apparatus.

[3] = cited from earlier work; for logK, pKa3: H2L2− + H+ ⇋ H3L−; for logK, pKa2: H3L− + H+ ⇋ H4L; for logK, pKa1: H4L + H+ ⇋ H5L+; for logK, pKa4: HL3− + H+ ⇋ H2L2−; for logK, pKa5: L4− + H+ ⇋ HL3−
[4] = pKa determination with Sirius instrument (PCA200)
[5] = Aqueous solubility of saturated solution at 21 °C (phosphorus determination by molybdenum blue spectrophotometry)
Experimental: A Jasco V-530 UV/Vis spectrophotometer was used for phosphorus determination at 880 nm wavelength. Filtered liquid samples were diluted to the appropriate volume with Milli-Q water and were digested with the persulphate oxidation technique in acidic medium at elevated temperature to convert aminobisphosponates to orthophosphate. In an acidic medium, ammonium molybdate and antimony potassium tartrate react with orthophosphate to form a phosphomolybdic acid that is reduced to intensively colored molybdenum blue by ascorbic acid [30].
The mixture containing an excess of the studied compound was first agitated for predetermined time with magnetic stirrer and before taking the sample mixture was allowed to stand for 24 h without stirring. The sample (about 5 mL) was taken from liquid above the solids, pH was measured and the sample was filtered through 0.2 µm membrane filter to remove any possible insoluble particles. The phosphorus concentration in the filtered sample solution was determined by using the spectrophotometric method described above.

[6] = overall protonation, zero level H2L2−

pKa ([1]; pKa1 (H4L + H+ ⇋ H5L+), approximate values): 1.06 | pKa ([1]; pKa2 (H3L− + H+ ⇋ H4L)): 1.7 | pKa ([1]; pKa3 (H2L2− + H+ ⇋ H3L−)): 5.9 | pKa ([1]; pKa4 (HL3− + H+ ⇋ H2L2−)): 10 | pKa ([1]; pKa5 (L4− + H+ ⇋ HL3−)): 12.9 | logβx ± 3σ, x = 1 (H3L−) [1, 6]: 5.90 ± 0.02 | logβx ± 3σ, x = 2 (H4L) [1, 6]: 7.60 ± 0.05 | logβx ± 3σ, x = 3 (H5L+) [1, 6]: 8.66 ± 0.30 | logβx ± 3σ, x = −1 (HL3−) [1, 6]: −10.04 ± 0.03 | logβx ± 3σ, x = −2 (L4−) [1, 6]: −22.90 ± 0.23 | Onset temperature of first cleavage ([2]; TG/DTA, higher crucible): 149 °C | Td ([2]; TG/DTA, higher crucible, air): 149 °C | Temp. range of 1st cleavage ([2]; TG/DTA, higher crucible): 134–199 °C | Onset temperature of first cleavage ([2]; TGA 7, shallow crucible): 155 °C | Td ([2]; TGA 7, shallow crucible, air): 155 °C | Temp. range of 1st cleavage ([2]; TGA 7, shallow crucible): 102–203 °C | Td (decomposition onset) ([2]; average from both instruments, air, heating rate 5 °C/min): 152 °C | temperature of first decomposition step (cleavage of amino group / degradation) ([2]; thermogravimetry, air): 100–200 °C | pKa 2 (Sirius) [4]: 2.32 | pKa 3 (Sirius) [4]: 5.93 | pKa 4 (Sirius) [4]: 10.05 | pKa 5 (Sirius) [4]: 12.54 | solubility at 30 min ([5]; Milli-Q water, unbuffered, 21 °C, water, thermodynamic from solid): 10.9 mg/mL (≈ 46.5 mM) | pH of saturated solution ([5]; saturated aqueous solution, 21 °C, agitation time 30 min): 4.62 | water solubility (in words) ([5]; water): almost freely soluble
SMILES: NCCC(O)(P(=O)(O)O)P(=O)(O)O [Compound 1, (3-Amino-1-hydroxypropylidene)bisphosphonic acid]
logK, pKa3 ([3]; first Ref.18 column): 6.01 | logK, pKa3 ([3]; ref 4): 5.86 | logK, pKa3 ([3]; ref 13): 5.83 | logK, pKa3 ([3]; ref 14): 5.85 | logK, pKa3 ([3]; ref 15): 6.01 | logK, pKa3 ([3]; ref 17): 6.04 | logK, pKa3 ([3]; second Ref.18 column): 5.39 | logK, pKa2 ([3]; ref 4): 2.04 | logK, pKa2 ([3]; ref 13): 2.55 | logK, pKa2 ([3]; ref 14): 1.80 | logK, pKa2 ([3]; ref 15): 2.56 | logK, pKa2 ([3]; ref 17): 1.93 | logK, pKa1 ([3]; ref 14): <1.2 | logK, pKa1 ([3]; ref 17): 1.24 | logK, pKa4 ([3]; first Ref.18 column): 9.97 | logK, pKa4 ([3]; ref 4): 9.90 | logK, pKa4 ([3]; ref 13): 9.9 | logK, pKa4 ([3]; ref 14): 10.30 | logK, pKa4 ([3]; ref 15): 9.80 | logK, pKa4 ([3]; ref 17): 10.18 | logK, pKa4 ([3]; second Ref.18 column): 9.46 | logK, pKa5 ([3]; first Ref.18 column): 10.74 | logK, pKa5 ([3]; ref 4): 11.02 | logK, pKa5 ([3]; ref 13): 10.8 | logK, pKa5 ([3]; ref 14): 13.06 | logK, pKa5 ([3]; ref 15): 10.95 | logK, pKa5 ([3]; ref 17): 12.14 | logK, pKa5 ([3]; second Ref.18 column): 10.40
